Legend:
Human CB2 = molecular target: T1, Human CB2 (Homo sapiens, UniProt P34972); test: Human CB2 Radioligand Binding Assay; settings: membranes from stably transfected CHO CB2 cells; competition with [3H] CP-55,940; read-out: CB2 Ligand Binding Asssay
T1 construct: expressed in transfected cells; membrane preparation
Protocol: (§1) This receptor binding filtration assay measures the receptor-ligand interactions of compounds by measuring ability to compete with a radiolabeled control ligand. Reactions were performed in 96 deep-well plate (Costar 3961) with a final volume of 600 ul. Compounds were added to each well either in single point (10 uM final) or dose-response. Compounds were delivered in DMSO or further diluted in incubation buffer to a final assay DMSO concentration of 1%. Incubation buffer (50 mM Tris-HCl pH 7.4, 2.5 mM EGTA, 5 mM MgCl2, 5.0 mg/ml fatty acid free BSA) was added to each well. Following buffer addition, [^3H] CP-55,940 was added. Tritiated CP-55,940 (Perkin Elmer) was used at the Kd determined from prior saturation binding experiments conducted on each lot of membranes. Membrane preparations from stably transfected CHO CB2 cells were added and the reaction was incubated for 90 minutes at 30° C. Unifilter GF/C filtration plates (Perkin Elmer) were pre-wet with 0.05% polyethylenimine. Samples were transferred to Unifilter plates and separation of unbound radioligand was achieved using a vacuum manifold (Millipore). Following thorough washing with 5 ml/well ice-cold wash buffer (50 mM Tris-HCl pH 7.4, 2.5 mM EGTA, 5 mM MgCl2, 0.5 mg/ml fatty acid free BSA), filterplates were dried completely. Betaplate Scint Scintillation cocktail (25 ul, Perkin Elmer) was applied and plates were read using Microbeta Trilux (Wallac). Data analysis was performed in Spotfire. Activity of the positive control (100 nM CP-55,940) was set as 100% efficacy.
Stable recombinant Human CB2-CHO cell membranes were prepared as follows: Chinese Hamster Ovarian (CHO) cells stably expressing human cannabinoid receptor type 2 were grown to ˜90% confluence in 15×100 mm culture dishes under puromycin selection (5 ug/ml) Cells were harvested from culture flasks using a cell scraper, were washed once with cold phosphate-buffered saline (calcium and magnesium free) and pelleted by centrifugation at 400 g for 5 min at 4° C. Cell pellet was washed once with cold phosphate-buffered saline and centrifuged again at 400×g for 5 min at 4° C. The pellet was suspended in ice-cold lysis buffer (10 mM Tris-HCl, 0.1 mM EDTA, containing […], pH 7.5) and homogenized in a chilled 7 ml glass dounce homogenizer using 50 strokes. The homogenate was centrifuged at 400 g for 15 min at 4° C. The cloudy supernatant was collected and centrifuged at 41000 g for 30 min at 4° C. The resulting pellet was washed with ice-cold sucrose-free lysis buffer and centrifuged again at 41000 g for 30 min at 4° C. The membrane pellet was suspended in sucrose-free storage buffer (10 mm Tris-HCl, 0.1 mM EDTA, pH 7.5) to a concentration of 2-3 mg protein/ml. Aliquots were flash frozen in liquid nitrogen and stored at −80° C. Concentration was determined using Dc protein assay kit (Bio-Rad).

[1] = molecular target: T2, human cannabinoid receptor type 1 (Homo sapiens, UniProt P21554); test: Human CB1 Radioligand Binding Assay (basis of selectivity CB2 vs. CB1)
T2 construct: purchased Perkin Elmer RBHCB1M; host or cells: HEK 293 EBNA cells
T2 sequence (P21554 whole entry): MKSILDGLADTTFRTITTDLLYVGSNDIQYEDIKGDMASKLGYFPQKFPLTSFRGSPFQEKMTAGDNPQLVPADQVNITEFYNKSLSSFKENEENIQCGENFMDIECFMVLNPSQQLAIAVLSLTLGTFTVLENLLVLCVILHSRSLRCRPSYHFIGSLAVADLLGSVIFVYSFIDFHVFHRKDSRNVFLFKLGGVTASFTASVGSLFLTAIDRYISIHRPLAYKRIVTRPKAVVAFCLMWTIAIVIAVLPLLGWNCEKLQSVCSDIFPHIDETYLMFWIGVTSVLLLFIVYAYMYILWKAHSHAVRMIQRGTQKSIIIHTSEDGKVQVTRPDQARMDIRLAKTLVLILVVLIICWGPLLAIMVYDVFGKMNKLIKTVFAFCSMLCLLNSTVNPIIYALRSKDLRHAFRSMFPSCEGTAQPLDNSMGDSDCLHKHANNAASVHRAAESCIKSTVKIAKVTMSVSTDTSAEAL
Protocol: as §1
The CB1 binding assay was performed as described above except that HEK 293 EBNA cells expressing human cannabinoid receptor type 1 (Perkin Elmer cat #RBHCB1M) were used according the manufacturer's instructions. The incubation buffer was composed of 50 mM Tris-HCl pH 7.4, 2.5 mM EDTA, 5 mM MgCl2, 5.0 mg/ml fatty acid free BSA and the wash buffer was composed of 50 mM Tris-HCl pH 7.4, 2.5 mM EDTA, 5 mM MgCl2, 0.5 mg/ml fatty acid free BSA. Activity of the positive control (100 nM CP-55,940) was set as 100% efficacy.

T1 sequence (P34972 whole entry): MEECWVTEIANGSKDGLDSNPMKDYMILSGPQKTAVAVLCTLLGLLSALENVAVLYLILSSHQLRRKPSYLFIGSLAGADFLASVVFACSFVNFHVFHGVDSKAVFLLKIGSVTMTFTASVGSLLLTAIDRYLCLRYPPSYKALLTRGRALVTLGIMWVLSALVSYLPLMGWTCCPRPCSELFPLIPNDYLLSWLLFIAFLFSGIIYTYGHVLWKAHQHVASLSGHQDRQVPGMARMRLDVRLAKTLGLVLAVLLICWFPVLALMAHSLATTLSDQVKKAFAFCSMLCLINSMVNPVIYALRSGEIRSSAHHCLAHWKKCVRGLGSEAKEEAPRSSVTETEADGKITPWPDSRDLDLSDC

Compound	IC50 (radioligand displacement) (Human CB2)	Selectivity, CB2 vs. CB1 [1]
CC(C)(C)c1ccc(C2=C(C(=O)Nc3ccc(Cl)c(Cl)c3)CCCn3cncc32)cc1 [Example 79, (E)-9-(4-tert-Butylphenyl)-N-(3,4-dichlorophenyl)-6,7-dihydro-5H-imidazo[1,5-a]azepine-8-carboxamide]	< 1000 nM	− (− indicates < 10-fold)
CC(C)(C)c1ccc(C2=C(NC(=O)Nc3ccc(F)c(F)c3)CCCn3cccc32)cc1 [Example 85, (E)-1-(9-(4-tert-Butylphenyl)-6,7-dihydro-5H-pyrrolo[1,2-a]azepin-8-yl)-3-(3,4-difluorophenyl)urea]	< 1000 nM	+ (+ indicates > 10-fold)
CC(C)(C)c1ccc(C2=C(C(=O)Nc3ccc(C(F)(F)F)cc3)CCn3cccc32)cc1 [Example 132, 8-(4-tert-Butylphenyl)-N-(4-(trifluoromethyl)phenyl)-5,6-dihydroindolizine-7-carboxamide]	< 1000 nM	− (− indicates < 10-fold)
CC(C)(C)C1CCC(C2c3cccn3CCCN2C(=O)Nc2ccc(F)c(F)c2)CC1 (centres unmarked) [Example 33, 1-(4-tert-Butylcyclohexyl)-N-(3,4-difluorophenyl)-4,5-dihydro-1H-pyrrolo[1,2-a][1,4]diazepine-2(3H)-carboxamide]	< 1000 nM	− (− indicates < 10-fold)
CC(C)(C)c1ccc(C2c3cccn3CCCC2NC(=O)Nc2ccc(F)c(F)c2)cc1 (mixture of isomers) [Example 117, 1-(9-(4-tert-Butylphenyl)-6,7,8,9-tetrahydro-5H-pyrrolo[1,2-a]azepin-8-yl)-3-(3,4-difluorophenyl)urea]	< 1000 nM	− (− indicates < 10-fold)
CC(C)(C)c1ccc(CC2c3cccn3CCCN2C(=O)Nc2ccc(Cl)cc2Cl)cc1 (centres unmarked) [Example 24, 1-(4-tert-Butylbenzyl)-N-(2,4-dichlorophenyl)-4,5-dihydro-1H-pyrrolo[1,2-a][1,4]diazepine-2(3H)-carboxamide]	< 1000 nM	− (− indicates < 10-fold)
(8,9-cis)-9-Phenyl-N-(4-(trifluoromethyl)phenyl)-6,7,8,9-tetrahydro-5H-pyrrolo[1,2-a]azepine-8-carboxamide [Example 112]	> 1000 nM	− (− indicates < 10-fold)
CC(C)(C)c1ccc(C2c3cccn3CCCN2C(=O)Cc2c(F)cccc2F)cc1 (centres unmarked) [Example 51, 1-(1-(4-tert-Butylphenyl)-4,5-dihydro-1H-pyrrolo[1,2-a][1,4]diazepin-2(3H)-yl)-2-(2,6-difluorophenyl)ethanone]	> 1000 nM	− (− indicates < 10-fold)
CC(C)(C)c1ccc(C2c3cccn3CCC2C(=O)Nc2ccc(F)c(F)c2)cc1 (mixture of isomers) [Example 95, 8-(4-tert-Butylphenyl)-N-(3,4-difluorophenyl)-5,6,7,8-tetrahydroindolizine-7-carboxamide]	< 1000 nM	+ (+ indicates > 10-fold)
CC(C)(C)c1ccc(C2c3ccnn3CCCN2C(=O)Nc2ccc(Cl)cc2Cl)cc1 (centres unmarked) [Example 25, 4-(4-tert-Butylphenyl)-N-(2,4-dichlorophenyl)-7,8-dihydro-4H-pyrazolo [1,5-a][1,4]diazepine-5(6H)-carboxamide]	< 1000 nM	+ (+ indicates > 10-fold)
CC(C)(C)C1CCC(C2c3cccn3CCCN2C(=O)Nc2ccc(F)cc2F)CC1 (centres unmarked) [Example 34, 1-(4-tert-Butylcyclohexyl)-N-(2,4-difluorophenyl)-4,5-dihydro-1H-pyrrolo[1,2-a][1,4]diazepine-2(3H)-carboxamide]	< 1000 nM	+ (+ indicates > 10-fold)
CC(C)(C)c1ccc(C2=C(C(=O)Nc3ccc(Cl)cc3)CCCn3cncc32)cc1 [Example 77, (E)-9-(4-tert-Butylphenyl)-N-(4-chlorophenyl)-6,7-dihydro-5H-imidazo[1,5-a]azepine-8-carboxamide]	> 1000 nM	− (− indicates < 10-fold)
CC(C)(C)c1ccc(C2=C(C(=O)Nc3ccc(Cl)cc3)CCCn3cccc32)cc1 [Example 66, (E)-9-(4-tert-Butylphenyl)-N-(4-chlorophenyl)-6,7-dihydro-5H-pyrrolo[1,2-a]azepine-8-carboxamide]	< 1000 nM	+ (+ indicates > 10-fold)

Now from value to compound:

IC50 (radioligand displacement) (Human CB2)	Selectivity, CB2 vs. CB1 [1]	Compound
< 1000 nM	− (− indicates < 10-fold)	O=C(Nc1ccc(OC(F)(F)F)cc1)[C@H]1CCCn2cccc2[C@H]1c1ccccc1 (relative stereo) [Example 114, (8,9-cis)-9-Phenyl-N-(4-(trifluoromethoxy)phenyl)-6,7,8,9-tetrahydro-5H-pyrrolo[1,2-a]azepine-8-carboxamide]
> 1000 nM	+ (+ indicates > 10-fold)	O=C(Nc1ccc(F)cc1F)N1CCn2cccc2C1c1ccccc1 (centres unmarked) [Example 5, N-(2,4-Difluorophenyl)-1-phenyl-3,4-dihydropyrrolo[1,2-a]pyrazine-2(1H)-carboxamide]
< 1000 nM	− (− indicates < 10-fold)	CC(C)(C)c1ccc(C2=C(C(=O)Nc3ccc(Cl)cc3Cl)CCCn3cccc32)cc1 [Example 63, (E)-9-(4-tert-Butylphenyl)-N-(2,4-dichlorophenyl)-6,7-dihydro-5H-pyrrolo[1,2-a]azepine-8-carboxamide]
< 1000 nM	+ (+ indicates > 10-fold)	CC(C)(C)c1ccc(C2[C@@H]3CCCN3CCCN2C(=O)Nc2ccc(Cl)cc2)cc1 (stereo partly drawn) [Example 131, (9aS)-1-(4-tert-Butylphenyl)-N-(4-chlorophenyl)hexahydro-1H-pyrrolo[1,2-a][1,4]diazepine-2(3H)-carboxamide]
< 1000 nM	+ (+ indicates > 10-fold)	CC(C)(C)c1ccc(C2c3cccnc3CCCN2C(=O)Nc2ccc(F)cc2F)cc1 (centres unmarked) [Example 134, 5-(4-tert-Butylphenyl)-N-(2,4-difluorophenyl)-8,9-dihydro-5H-pyrido[3,2-c]azepine-6(7H)-carboxamide]
< 1000 nM	+ (+ indicates > 10-fold)	CC(C)(C)c1cccc(C2c3cccn3CCCN2C(=O)Nc2ccc(F)cc2F)c1 (centres unmarked) [Example 18, 1-(3-tert-Butylphenyl)-N-(2,4-difluorophenyl)-4,5-dihydro-1H-pyrrolo[1,2-a][1,4]diazepine-2(3H)-carboxamide]
> 1000 nM	− (− indicates < 10-fold)	CC(C)(C)c1ccc(CC2[C@@H]3CCCN3CCCN2C(=O)Nc2ccc(F)cc2)cc1 (mixture of isomers) [Example 127, (9aS)-1-(4-tert-Butylbenzyl)-N-(4-fluorophenyl)hexahydro-1H-pyrrolo[1,2-a][1,4]diazepine-2(3H)-carboxamide]
< 1000 nM	+ (+ indicates > 10-fold)	CC(C)(C)c1ccc(C2c3cccn3CCN2C(=O)Nc2ccc(F)cc2F)cc1 (centres unmarked) [Example 2, 1-(4-tert-Butylphenyl)-N-(2,4-difluorophenyl)-3,4-dihydropyrrolo[1,2-a]pyrazine-2(1H)-carboxamide]
> 1000 nM	− (− indicates < 10-fold)	CC(C)(C)c1ccc(CC2[C@@H]3CCCN3CCCN2C(=O)Nc2ccccc2)cc1 (mixture of isomers) [Example 126, (9aS)-1-(4-tert-Butylbenzyl)-N-phenylhexahydro-1H-pyrrolo[1,2-a][1,4]diazepine-2(3H)-carboxamide]
